Laboratory results taken from ChEMBL document CHEMBL1134612, “A structure-based design approach to the development of novel, reversible AChE inhibitors” (J Med Chem, 2001).

Molecular target: Acetylcholinesterase (Torpedo californica, UniProt P04058)
Sequence (P04058 whole entry): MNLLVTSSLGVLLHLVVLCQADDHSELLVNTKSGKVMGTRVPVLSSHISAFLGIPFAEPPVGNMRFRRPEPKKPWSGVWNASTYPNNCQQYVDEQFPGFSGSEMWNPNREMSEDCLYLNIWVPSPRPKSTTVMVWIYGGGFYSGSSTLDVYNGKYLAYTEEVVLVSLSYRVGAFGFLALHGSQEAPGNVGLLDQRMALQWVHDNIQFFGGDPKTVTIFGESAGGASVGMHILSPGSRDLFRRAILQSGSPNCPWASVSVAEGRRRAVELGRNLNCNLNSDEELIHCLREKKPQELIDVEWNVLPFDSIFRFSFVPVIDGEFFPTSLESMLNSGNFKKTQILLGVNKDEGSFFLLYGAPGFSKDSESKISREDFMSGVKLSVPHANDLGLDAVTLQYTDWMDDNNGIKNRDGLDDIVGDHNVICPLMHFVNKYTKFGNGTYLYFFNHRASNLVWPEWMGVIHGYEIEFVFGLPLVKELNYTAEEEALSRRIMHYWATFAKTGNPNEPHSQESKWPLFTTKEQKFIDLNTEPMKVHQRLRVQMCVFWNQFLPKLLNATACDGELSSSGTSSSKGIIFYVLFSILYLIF
Description: Inhibition of activity against Torpedo Ray acetylcholinesterase.

SMILES	IC50 [nM]
OC(O)(CCCCCNc1c2c(nc3cccc(Cl)c13)CCCCC2)C(F)(F)F	36
Nc1c2c(nc3cccc(Cl)c13)CCCCC2	2.4
CCOC(=O)c1c(C)nc2cccc(F)c2c1N	2600
Cc1nc2cccc(Cl)c2c(N)c1CNC1(C(F)(F)F)CCC(=O)O1 (stereo unspecified)	7200
Cc1nc2ccccc2c(N)c1COCc1cccc(C(=O)C(F)(F)F)c1	3
Cc1nc2cccc(F)c2c(N)c1CSC1(C(F)(F)F)CCCO1 (stereo unspecified)	18
Cc1nc2cccc(F)c2c(N)c1CSCc1cccc(C(=O)C(F)(F)F)c1	3
Cc1nc2cccc(Cl)c2c(N)c1COCc1cccc(C(=O)C(F)(F)F)c1	5.1
CC(=O)c1cccc(CSCc2c(C)nc3cccc(F)c3c2N)c1	15000
O=C(c1cccc(CBr)c1)C(F)(F)F	360
Cc1nc2cccc(F)c2c(N)c1CNC1(C(F)(F)F)CCC(=O)O1 (stereo unspecified)	14000
O=C(c1ccc(CNc2c3c(nc4cccc(Cl)c24)CCCCC3)s1)C(F)(F)F	12
Cc1nc2cccc(F)c2c(N)c1COCc1ccccc1	2000
Cc1nc2cccc(F)c2c(N)c1CN	1900
Cc1nc2cccc(F)c2c(N)c1CSCc1cccc(C(O)C(F)(F)F)c1 (stereo unspecified)	11000
Cc1nc2cccc(F)c2c(N)c1COCc1cccc(C(=O)C(F)(F)F)c1	3.8
